Values of other authors, collected in patent US20230398111A1, “ORAL FORMULATIONS OF NINTEDANIB AND METHOD OF MANUFACTURING THEREOF” (BDR PHARMACEUTICALS INTERNATIONAL PRIVATE LIMITED, priority 2020, published 2023).

Conditions: neutral conditions / neutral pH

In the case of `COC(=O)c1ccc2c(c1)NC(=O)/C2=C(\Nc1ccc(N(C)C(=O)CN2CCN(C)CC2)cc1)c1ccccc1` [Nintedanib esylate, methyl-2-hydroxy-3-[N-[4-[methyl-[2-(4-methylpiperazin-1-yl)acetyl]amino]phenyl]-C-phenylcarbonimidoyl]-1H-indole-6-carboxylate ethanesulfonic acid], the solubility is listed as “poor solubility”.
